One data set concerns HIV-1 IIIB. Briefly: microbe, parasite or virus in culture. To be noted: for inhibition activity (anti-HIV): in up to 50 μM concentrations. It counts as cell-based. The protocol:
(§1) Inhibition of HIV-1 cell replication was tested using the cMAGI assay, which is based on the ability of HIV-1 TAT to transactivate the expression of an integrated β-galactosidase reporter gene driven by the HIV-LTR (B. Chackeria et al., J. Virol., (1997) 71, 3932; Collins et al., Nat. Med. (2000) 6, 475). The β-galactosidase reporter is modified to remain localized in the nucleus where it can be detected with the X-gal (5-bromo-4-chloro-3indoyl-β-D-galactopyranoside) substrate as an intense nuclear stain within a few days of infection.
(§2) HIV-1 isolates were propagated by subculture in MT2 cells (Litovchick et al. (2001) supra). Aliquots of cell-free culture supernatants were used as viral inoculum. PAACs were dissolved in the RPMI 1640 medium. Cytotoxicity determinations were carried out in MT2 cells by trypan blue exclusion assay. Viral inhibition was determined by incubating MT2 or cMAGI HIV-1 reporter cells with 0.2-0.5 multiplicity of infection of HIV-1 wild type or resistant virus for 4 days at 37° C. in the presence or absence of various concentrations of pAACs. HIV-1 infection of cMAGI cells was determined by counting the number of HIV-1-infected cells (stained blue). The cytopathic effects of the viral infection of MT2 cells were also analyzed by microscopic assessment of syncytium formation.

Another data set can be described thus: in vitro. It counts as cell-based. To be noted: human, read-out: Cytotoxicity. The protocol:
Cytotoxicity of the various pAACs was determined using the trypan blue exclusion assay. In brief, a sample of the cell suspension was diluted 1:1 (v/v) with 0.4% trypan blue and the cells were counted using a hemocytometer. Results are expressed as the percentage of dead cells.
as §2

A further data set has as its target T1, CXCR4 (Homo sapiens, UniProt P61073).
T1 construct: incubated at 4° C. with anti-CXCR4 mAb, 12G5, conjugated to phycoerithrine (PE); endogenous in cells; host or cells: MT2 cells
Description: Competition with 12G5 mAb binding to CXCR4 on MT2 cells (flow cytometry). To be noted: for median fluorescent intensity (MFI) of 12G5 mAb binding to MT2 cells: without compound 55.56, isotype control 4.0. How it is done: Interaction of pAACs and arginine peptides with CXCR4 coreceptor: Interactions of pAACs and arginine-peptides with CXCR4 were determined by flow cytometry (FACS-Scan, Becton Dickinson) as previously described (Litovich (2001) supra). In brief, 0.5×10^6 MT2 cells were washed with ice-cold PBS containing 0.1% sodium azide (wash buffer) and were incubated at 4° C. with anti-CXCR4 mAb, 12G5, conjugated to phycoerithrine (PE), in the absence or presence of different concentrations of pAACs and arginine peptides. After 30 minutes of incubation, the cells were washed with ice-cold wash buffer and fixed in PBS containing 1% paraformaldehyde. Non-specific fluorescence was assessed using an isotype control. For each sample 10,000 events were acquired. Data were analyzed and processed using CellQuest™ software (Becton Dickinson).
(In general: Flow cytometry measures light scatter and fluorescence of single cells or particles in a stream.)

Data set [1] deals with HIV-1 NeoR6 resistant virus. It counts as cell-based. To be noted: read-out: EC50 NeoR6^Res; Table 4. How it is done:
as §1, §2

In data set [2] the test system is HIV-1 Protease resistant virus. It counts as cell-based. As to conditions: Table 4; read-out: EC50 Protease^Res. The protocol:
as §1, §2

The next data set has as its system HIV-1 Ba-L. It is filed as cell-based. To be noted: Table 4. How it is done:
as §1, §2

The test system of data set [3] is HIV-1 AZT resistant virus. It counts as cell-based. As to conditions: Table 4; read-out: EC50 AZT^Res. How it is done:
as §1, §2

In data set [4] the test system is HIV-1 clinical isolate Clade C. It is filed as cell-based. How it is done:
as §1, §2

Data set [5] relates to HIV-1 clinical isolate Clade A. It counts as cell-based. How it is done: as §1, §2
Data set [6] relates to HIV-1 wild-type and NeoR6 resistant isolates. To be noted: cited from earlier work.
[7] abbreviates: Table 3, against HIV-1 IIIB virus, read-out: EC50.
The mark [8] stands for this setting: MT2 cells, Table 3, trypan blue exclusion.
The mark [9] stands for this setting: Table 4, tryphan blue exclusion assay for MT2 cells.
The mark [10] stands for this setting: Table 4, read-out: EC50 Clade C.
[11] abbreviates: Table 4, read-out: EC50 Clade A.

This is an account of results in patent US20060166867A1, “Novel conjugates of polysaccharides and uses thereof” (priority 2003, published 2006).

Read-outs that look alike come from different tables or passages of the source.

T1 sequence (P61073 whole entry): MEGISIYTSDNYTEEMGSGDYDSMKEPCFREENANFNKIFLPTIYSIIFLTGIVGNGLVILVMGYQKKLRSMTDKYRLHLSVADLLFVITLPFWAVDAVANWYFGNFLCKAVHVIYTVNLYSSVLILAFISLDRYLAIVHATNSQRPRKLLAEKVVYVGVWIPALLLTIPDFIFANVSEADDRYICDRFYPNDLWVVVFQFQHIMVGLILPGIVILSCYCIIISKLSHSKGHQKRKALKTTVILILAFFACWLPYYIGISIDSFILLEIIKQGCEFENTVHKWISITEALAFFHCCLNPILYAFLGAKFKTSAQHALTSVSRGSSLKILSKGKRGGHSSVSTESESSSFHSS

For `N=C(N)NCCC[C@H](NC(=O)[C@H](CCCNC(=N)N)NC(=O)[C@H](CCCNC(=N)N)NC(=O)[C@H](CCCNC(=N)N)NC(=O)[C@H](CCCNC(=N)N)NC(=O)[C@@H](N)CCCNC(=N)N)C(=O)O` [Compound 1, L-Arg-6mer-NH2], the concentration giving a half-maximal response (EC50) with HIV-1 IIIB (setting [7]) was determined as 110 µM. For the same compound, the “inhibition activity (anti-HIV)” value with HIV-1 IIIB is recorded as “no inhibition activity”.

As for `N=C(N)NCCC[C@H](NC(=O)[C@H](CCCNC(=N)N)NC(=O)[C@H](CCCNC(=N)N)NC(=O)[C@H](CCCNC(=N)N)NC(=O)[C@H](CCCNC(=N)N)NC(=O)[C@@H](N)CCCNC(=N)N)C(=O)NC[C@H]1O[C@H](O[C@H]2[C@H](O)[C@@H](O)[C@H](N)C[C@@H]2N)[C@H](N)[C@@H](O)[C@@H]1O` [Compound 2, L-Arg-6-mer-neamine], the concentration for a half-maximal effect (EC50) in the data set with HIV-1 IIIB (setting [7]) turned out to be 70 ± 10 µM. For the same compound, the CC50 in the data set “in vitro” (setting [8]) came out at 210 µM. Further, the inhibition at 20 µM on CXCR4 (read-out: % Inhibition of 12G5 mAb binding to CXCR4, 20 μM) was found to be 35.4%.

As to `N=C(N)NCCC[C@H](NC(=O)[C@H](CCCNC(=N)N)NC(=O)[C@H](CCCNC(=N)N)NC(=O)[C@H](CCCNC(=N)N)NC(=O)[C@H](CCCNC(=N)N)NC(=O)[C@@H](N)CCCNC(=N)N)C(=O)NC[C@@H]1O[C@H](O[C@H]2[C@@H](O)[C@H](O[C@@H]3[C@@H](O)[C@H](N)C[C@H](N)[C@H]3O[C@H]3O[C@H](CO)[C@@H](O)[C@H](O)[C@H]3N)O[C@@H]2CO)[C@H](N)[C@@H](O)[C@@H]1O` [Compound 3, L-Arg-6-mer-paromomycin], in the data set with HIV-1 IIIB (setting [7]), the EC50 came to 31 ± 10 µM. Also, the CC50 in the data set “in vitro” (setting [8]) stood at 160 µM.

Turning to `N=C(N)NCCC[C@H](NC(=O)[C@H](CCCNC(=N)N)NC(=O)[C@H](CCCNC(=N)N)NC(=O)[C@H](CCCNC(=N)N)NC(=O)[C@H](CCCNC(=N)N)NC(=O)[C@H](CCCNC(=N)N)NC(=O)[C@H](CCCNC(=N)N)NC(=O)[C@H](CCCNC(=N)N)NC(=O)[C@@H](N)CCCNC(=N)N)C(=O)NC[C@H]1O[C@H](O[C@H]2[C@H](O)[C@@H](O)[C@H](N)C[C@@H]2N)[C@H](N)[C@@H](O)[C@@H]1O` [Compound 6, L-Arg-9-mer-neamine], in the data set on HIV-1 IIIB (setting [7]), the EC50 was 37.5 ± 2.5 µM. The CC50 in the data set “in vitro” (setting [8]) was determined as 175 µM. Moreover, the inhibition at 80 µM at CXCR4 (read-out: % Inhibition of 12G5 mAb binding to CXCR4, 80 μM) came to 30.1%.

Turning to `N=C(N)NCCC[C@H](NC(=O)[C@H](CCCNC(=N)N)NC(=O)[C@H](CCCNC(=N)N)NC(=O)[C@H](CCCNC(=N)N)NC(=O)[C@H](CCCNC(=N)N)NC(=O)[C@H](CCCNC(=N)N)NC(=O)[C@H](CCCNC(=N)N)NC(=O)[C@H](CCCNC(=N)N)NC(=O)[C@@H](N)CCCNC(=N)N)C(=O)NC[C@@H]1O[C@H](O[C@H]2[C@@H](O)[C@H](O[C@@H]3[C@@H](O)[C@H](N)C[C@H](N)[C@H]3O[C@H]3O[C@H](CO)[C@@H](O)[C@H](O)[C@H]3N)O[C@@H]2CO)[C@H](N)[C@@H](O)[C@@H]1O` [Compound 7, L-Arg-9-mer-paromomycin], in the data set on HIV-1 IIIB (setting [7]), the concentration giving a half-maximal response (EC50) is 31 ± 9 µM. Further, in the data set “in vitro” (setting [8]), the CC50 came to 140 µM.

With `CC(=O)N[C@H](CCCNC(=N)N)C(=O)N[C@H](CCCNC(=N)N)C(=O)N[C@H](CCCNC(=N)N)C(=O)N[C@H](CCCNC(=N)N)C(=O)N[C@H](CCCNC(=N)N)C(=O)N[C@H](CCCNC(=N)N)C(=O)O` [Compound 9, D-Arg-6-mer-NHAc], the EC50 was 5.8 ± 1.7 µM with HIV-1 IIIB (Table 4, read-out: EC50 IIIB); 6.8 ± 0.7 µM in [1]; 4.9 ± 1 µM in data set [2]; more than 50 µM in the data set with HIV-1 Ba-L; 15.2 ± 6.2 µM in [3]; 5.3 ± 0.3 µM in [4] (clinical isolate Clade C). The same compound gave an EC50 in data set [5] (clinical isolate Clade A) of 8 ± 1 µM. Besides, in the data set “in vitro” (setting [9]), the CC50 is 170 µM. The inhibition at 2 µM at CXCR4 (2 μM, read-out: % Inhibition of 12G5 mAb binding to CXCR4) came to 1.6%. The inhibition at 10 µM on CXCR4 (10 μM, read-out: % Inhibition of 12G5 mAb binding to CXCR4) worked out at 70.9%.

As for `CC(=O)N[C@H](CCCNC(=N)N)C(=O)N[C@H](CCCNC(=N)N)C(=O)N[C@H](CCCNC(=N)N)C(=O)N[C@H](CCCNC(=N)N)C(=O)N[C@H](CCCNC(=N)N)C(=O)N[C@H](CCCNC(=N)N)C(=O)NC[C@H]1O[C@H](O[C@H]2[C@H](O)[C@@H](O)[C@H](N)C[C@@H]2N)[C@H](N)[C@@H](O)[C@@H]1O` [Compound 10, D-Arg-6-mer-neamine], the EC50 was 1.8 ± 0.1 µM in the data set on HIV-1 IIIB (Table 4, read-out: EC50 IIIB); 2.6 ± 1.2 µM in [1]; 2.2 ± 0.4 µM in data set [2]; more than 50 µM with HIV-1 Ba-L; 7 ± 4 µM in data set [3]; 1.7 ± 0.1 µM in [4] (setting [10]). Besides, the EC50 in data set [5] (setting [11]) turned out to be 3.2 ± 1.3 µM. For the same compound, the CC50 in “in vitro” (setting [9]) is 150 µM. Further, the “% Inhibition of 12G5 mAb binding to CXCR4” value at CXCR4 (2 μM) is listed as 91.1%. For the same compound, the “median fluorescent intensity (MFI) of 12G5 mAb binding to MT2 cells” value on CXCR4 (2 μM) came out at 9.6; at CXCR4 (10 μM), 3.3. For the same compound, the inhibition at 2 µM at CXCR4 (read-out: % Inhibition of 12G5 mAb binding to CXCR4, 2 μM) worked out at 91%. Also, the inhibition at 10 µM on CXCR4 (read-out: % Inhibition of 12G5 mAb binding to CXCR4, 10 μM) was determined as 100%.

Regarding `N=C(N)NCCCC(N)C(=O)NC(CCCNC(=N)N)C(=O)NC(CCCNC(=N)N)C(=O)NC(CCCNC(=N)N)C(=O)NC(CCCNC(=N)N)C(=O)NC(CCCNC(=N)N)C(=O)NC(CCCNC(=N)N)C(=O)NC(CCCNC(=N)N)C(=O)NC(CCCNC(=N)N)C(=O)NC[C@H]1O[C@H](O[C@H]2[C@H](O)[C@@H](O)[C@H](N)C[C@@H]2N)[C@H](N)[C@@H](O)[C@@H]1O` (stereo partly drawn) [Compound 16, D/L-Arg-9-mer-neamine], in the data set “in vitro” (setting [8]), the CC50 is 160 µM.

Consider `N=C(N)NCCC[C@H](NC(=O)[C@@H](N)CCCNC(=N)N)C(=O)NCC1OC(OC2C(N)CC(N)C(O)C2O)C(N)C(O)C1O` (stereo partly drawn) [Compound 21, L-Arg-2-mer-neamine], for which, in the data set with HIV-1 IIIB (setting [7]), the EC50 is approximately 46 µM.

Consider `NC[C@H]1O[C@H](O[C@H]2[C@H](O)[C@@H](O)[C@H](N)C[C@@H]2N)[C@H](N)[C@@H](O)[C@@H]1O` [neamine, Neamine, reference compound], for which the “inhibition activity (anti-HIV)” value in the data set with HIV-1 IIIB is “no inhibition activity”.

For D-Arg-6-mer-neomycin [Compound 11], the EC50 in the data set on HIV-1 IIIB (Table 4, read-out: EC50 IIIB) is 2.1 ± 0.6 µM; in data set [1], 5.3 ± 2.5 µM; in data set [2] it was 4 ± 1 µM; with HIV-1 Ba-L it was more than 50 µM; in [3], 10.4 ± 4.1 µM; in data set [4] (setting [10]), 3 ± 0.8 µM. The concentration for a half-maximal effect (EC50) in [5] (setting [11]) came to 5.7 ± 2.8 µM. In addition, the “% Inhibition of 12G5 mAb binding to CXCR4” value at CXCR4 (2 μM) came to 79%; on CXCR4 (2 μM, listed as r6-D-arginine-neomycin), 91.1%; on CXCR4 (10 μM), 99.3%.

Consider L-Arg-6-mer-neomycin [Compound 4], for which the EC50 with HIV-1 IIIB (setting [7]) was found to be 40 ± 12 µM.

For “tri-arginine gentamycin C1 conjugate [Compound R3G]”, the “times more resistant, NeoR6^res isolates than wild-type virus” value in data set [6] is reported as “about 5 times”. For the same compound, the EC50 in data set [6] (wild-type and NeoR6 resistant isolates) is 4.1 µM.

Usually EC50 stands for the concentration needed to bring the measured effect to its halfway point. As a reminder, the inhibition is the drop in the measured response relative to a control, in per cent.
